In ChEMBL document CHEMBL1201862, “PubChem BioAssay data set” (2004):
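A five-concentration, 48-hour dose response in 96-well plates underlies each endpoint, interpolated linearly between surrounding concentrations. GI50: concentration for 50% inhibition of growth.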 Activity calls are given as the source filed them. Cut-off read from the data, not from the text of the source: active = GI50 up to about 1.1 µM and inactive = higher.

Legend:
Assay in all cases: growth of human tumour cells (NCI), 48 h
786-0 = system: 786-0
ACHN = system: ACHN
BT-549 = system: BT-549
CAKI-1 = system: CAKI-1
COLO 205 = system: COLO 205
HCT-15 = system: HCT-15
HOP-62 = system: HOP-62
HT-29 = system: HT-29
KM12 = system: KM12
M14 = system: M14
NCI-H226 = system: NCI-H226
NCI-H522 = system: NCI-H522
OVCAR-8 = system: OVCAR-8
SK-MEL-28 = system: SK-MEL-28
SK-MEL-2 = system: SK-MEL-2
SK-MEL-5 = system: SK-MEL-5
SK-OV-3 = system: SK-OV-3
T47D = system: T47D
UACC-257 = system: UACC-257
UO-31 = system: UO-31

SMILES | GI50 (786-0) | GI50 (ACHN) | GI50 (BT-549) | GI50 (CAKI-1) | GI50 (COLO 205) | GI50 (HCT-15) | GI50 (HOP-62) | GI50 (HT-29) | GI50 (KM12) | GI50 (M14) | GI50 (NCI-H226) | GI50 (NCI-H522) | GI50 (OVCAR-8) | GI50 (SK-MEL-28) | GI50 (SK-MEL-2) | GI50 (SK-MEL-5) | GI50 (SK-OV-3) | GI50 (T47D) | GI50 (UACC-257) | GI50 (UO-31)
Oc1c(Br)cc(Br)cc1CN(Cc1cc(Br)cc(Br)c1O)C1CCCCC1 | 41.1 µM (inactive) | 31.1 µM (inactive) | 33.1 µM (inactive) | 34.9 µM (inactive) | 14.7 µM (inactive) | 31.9 µM | 24.4 µM (inactive) | 23.7 µM (inactive) | 31.9 µM (inactive) | 34.3 µM (inactive) | 59.4 µM (inactive) | 15.3 µM (inactive) | 31.1 µM (inactive) | 48.1 µM (inactive) | 20.2 µM (inactive) | 16.9 µM (inactive) | 44.6 µM (inactive) | 32.4 µM (inactive) | 19.5 µM (inactive) | 31.7 µM (inactive)
O=C(O)c1cc(-c2ccc(-c3ccccc3)cc2)nc2cc3ccccc3cc12 | 25.9 µM (inactive) | 46.6 µM (inactive) | 35.9 µM (inactive) | 42 µM (inactive) | 54.7 µM (inactive) | 8.15 µM | 30.3 µM (inactive) | 38 µM (inactive) | 34.3 µM (inactive) | > 100 µM (inactive) | 35.7 µM (inactive) | 27.7 µM (inactive) | 57.1 µM (inactive) | 87.5 µM (inactive) | 82 µM (inactive) | 26.4 µM (inactive) | > 100 µM (inactive) | 49.5 µM (inactive) | > 100 µM (inactive) | 61.9 µM (inactive)
Cc1cc(C)nc(NS(=O)(=O)c2ccc(NNc3c4ccccc4nc4c(C(=O)Nc5ccc(S(=O)(=O)N=C(N)N)cc5)cccc34)cc2)n1 | 65.5 µM (inactive) | 45 µM (inactive) | 56 µM (inactive) | > 100 µM (inactive) | 36.1 µM (inactive) | 63.4 µM | > 100 µM (inactive) | 26.6 µM (inactive) | 34.7 µM (inactive) | 97.9 µM (inactive) | 49.7 µM (inactive) | 36.6 µM (inactive) | 52.4 µM (inactive) | 17.6 µM (inactive) | 3.64 µM (inactive) | 53.1 µM (inactive) | 24.8 µM (inactive) | 25.8 µM (inactive) | > 100 µM (inactive) | 27.7 µM (inactive)
CCNC(=S)NNC(=O)CSc1nc2ccc(I)cc2c(=O)n1Cc1ccccc1 | 29.2 µM (inactive) | 5.74 µM (inactive) | > 54.1 µM (inactive) | 0.374 µM (active) | 25.7 µM (inactive) | 14.7 µM | 35.8 µM (inactive) | 18.1 µM (inactive) | 8.77 µM (inactive) | 38.4 µM (inactive) | 10.5 µM (inactive) | 13.1 µM (inactive) | 22 µM (inactive) | 63.8 µM (inactive) | 29.4 µM (inactive) | 8.65 µM (inactive) | 35 µM (inactive) | 5.27 µM (inactive) | 17.7 µM (inactive) | 0.0299 µM (active)
CC(C)=CCC[C@@H](C)C1=C(O)C(O)C(C)=C2N=C(c3ccccc3)C(=O)OC21 (stereo not given in full) | 7.8 µM (inactive) | 2.16 µM (inactive) | 2.15 µM (inactive) | 2.39 µM (inactive) | 9.38 µM (inactive) | 2.31 µM | 3.71 µM (inactive) | 6.81 µM (inactive) | 4.44 µM (inactive) | 4.71 µM (inactive) | 2.88 µM (inactive) | 0.624 µM (active) | 0.933 µM (active) | 3.07 µM (inactive) | 1.61 µM (inactive) | 1.29 µM (inactive) | 1.12 µM (inactive) | 1.21 µM (inactive) | 2.88 µM (inactive) | 5.22 µM (inactive)
Cc1cc(=O)oc2c(C)c3oc(CBr)c(Br)c3cc12 | 14.4 µM (inactive) | 35.6 µM (inactive) | 29.3 µM (inactive) | 17.2 µM (inactive) | 28.2 µM (inactive) | 30.1 µM | 27 µM (inactive) | 39.2 µM (inactive) | 26.8 µM (inactive) | 22 µM (inactive) | 30 µM (inactive) | 14.7 µM (inactive) | 24.7 µM (inactive) | 44.4 µM (inactive) | 36.1 µM (inactive) | 18.2 µM (inactive) | 43.3 µM (inactive) | 24.2 µM (inactive) | 54.5 µM (inactive) | 18.6 µM (inactive)
CCN(CCCN(CC)C(=O)Nc1c(C)cccc1C)C(=O)Nc1c(C)cccc1C | > 100 µM (inactive) | > 100 µM (inactive) | > 100 µM (inactive) | > 100 µM (inactive) | > 100 µM (inactive) | > 100 µM | > 100 µM (inactive) | > 100 µM (inactive) | > 100 µM (inactive) | > 100 µM (inactive) | > 100 µM (inactive) | > 100 µM (inactive) | > 100 µM (inactive) | > 100 µM (inactive) | > 100 µM (inactive) | > 100 µM (inactive) | > 100 µM (inactive) | 35.4 µM (inactive) | > 100 µM (inactive) | 92.3 µM (inactive)
C=C(CN(C)C)C(=O)c1cc(C)ccc1C | 2.96 µM (inactive) | 3.54 µM (inactive) | 10.2 µM (inactive) | 4.39 µM (inactive) | 1.58 µM (inactive) | 4.13 µM | 18.7 µM (inactive) | 11 µM (inactive) | 18.6 µM (inactive) | 2.11 µM (inactive) | 13.2 µM (inactive) | 0.843 µM (active) | 20.7 µM (inactive) | 9.1 µM (inactive) | 16.9 µM (inactive) | 13.3 µM (inactive) | 18.4 µM (inactive) | 4.11 µM (inactive) | 7.96 µM (inactive) | 6.87 µM (inactive)
COC1OC2COC(C)(C)OC2C2OC(C)(C)OC12 (stereo not given) | 18.6 µM (inactive) | 41.8 µM (inactive) | > 100 µM (inactive) | 14.6 µM (inactive) | 46.5 µM (inactive) | > 100 µM | 21.7 µM (inactive) | 60.5 µM (inactive) | > 100 µM (inactive) | > 100 µM (inactive) | 23.8 µM (inactive) | > 100 µM (inactive) | 55.7 µM (inactive) | > 100 µM (inactive) | > 100 µM (inactive) | > 100 µM (inactive) | 78.2 µM (inactive) | > 100 µM (inactive) | 63.2 µM (inactive) | > 100 µM (inactive)
O=C(c1ccccc1)n1cc(-c2ccccc2)c2c(=O)nc[nH]c21 | > 100 µM (inactive) | > 100 µM (inactive) | > 100 µM (inactive) | > 100 µM (inactive) | > 100 µM (inactive) | > 100 µM | > 100 µM (inactive) | > 100 µM (inactive) | > 100 µM (inactive) | > 100 µM (inactive) | > 100 µM (inactive) | > 100 µM (inactive) | > 100 µM (inactive) | > 100 µM (inactive) | > 100 µM (inactive) | > 100 µM (inactive) | > 100 µM (inactive) | > 100 µM (inactive) | > 100 µM (inactive) | > 100 µM (inactive)
COc1cc(Oc2nc3c(N)cc(C(F)(F)F)cc3nc2-c2ccccc2)cc(OC)c1OC | 3.97 µM (inactive) | 4.55 µM (inactive) | 4.03 µM (inactive) | 3.98 µM (inactive) | 3.62 µM (inactive) | 3.53 µM | 3.29 µM (inactive) | 1.49 µM (inactive) | 2.17 µM (inactive) | 5.81 µM (inactive) | 12.8 µM (inactive) | 2.08 µM (inactive) | 4.91 µM (inactive) | 14.8 µM (inactive) | 3.24 µM (inactive) | 2.77 µM (inactive) | 4.53 µM (inactive) | 5.81 µM (inactive) | 4.09 µM (inactive) | 11.2 µM (inactive)
O=[N+]([O-])c1ccc(/N=N/c2c(O)ccc3cc(S(=O)(=O)O)cc(S(=O)(=O)O)c23)cc1 | > 100 µM (inactive) | > 100 µM (inactive) | > 100 µM (inactive) | > 100 µM (inactive) | > 100 µM (inactive) | > 100 µM | > 100 µM (inactive) | > 100 µM (inactive) | > 100 µM (inactive) | > 100 µM (inactive) | > 100 µM (inactive) | > 100 µM (inactive) | > 100 µM (inactive) | > 100 µM (inactive) | > 100 µM (inactive) | > 100 µM (inactive) | > 100 µM (inactive) | > 100 µM (inactive) | > 100 µM (inactive) | > 100 µM (inactive)
O=C1/C(=C/c2ccc(O)cc2)CC/C1=C\c1ccc(O)cc1 | > 41 µM (inactive) | 6.31 µM (inactive) | > 100 µM (inactive) | 34.5 µM (inactive) | > 100 µM (inactive) | > 100 µM | > 61.8 µM (inactive) | > 100 µM (inactive) | > 100 µM (inactive) | > 100 µM (inactive) | > 100 µM (inactive) | 49.4 µM (inactive) | > 81.5 µM (inactive) | > 100 µM (inactive) | > 100 µM (inactive) | > 100 µM (inactive) | > 100 µM (inactive) | > 95.1 µM (inactive) | > 100 µM (inactive) | 51.2 µM (inactive)
O=CN/C=C/c1cccc(O)c1 | 54 µM (inactive) | 50 µM (inactive) | 8.26 µM (inactive) | > 61.5 µM (inactive) | > 77.3 µM (inactive) | 72.1 µM | 39.3 µM (inactive) | 50.4 µM (inactive) | 62.4 µM (inactive) | 61.9 µM (inactive) | 56.5 µM (inactive) | 48.3 µM (inactive) | 54.1 µM (inactive) | > 84.1 µM (inactive) | 58.7 µM (inactive) | > 63.1 µM (inactive) | > 72.1 µM (inactive) | 63.4 µM (inactive) | 63.7 µM (inactive) | 54.2 µM (inactive)
